Source: patent publication US20180170904A1, “PYRIDIN-3-YL ACETIC ACID DERIVATIVES AS INHIBITORS OF HUMAN IMMUNODEFICIENCY VIRUS REPLICATION” (priority 2015, published 2018)

What follows are molecules tested on NL-RLuc virus (recombinant NL4-3 proviral clone with Renilla Luciferase gene) (assay: Inhibition of HIV replication (NL-RLuc reporter virus in MT-2 cells)). Conditions: Renilla, NL43, 120 h, read-out: Activity.
Type: cell-based
Source text: Inhibition of HIV replication: A recombinant NL-RLuc proviral clone was constructed in which a section of the nef gene from NL4-3 was replaced with the Renilla Luciferase gene. This virus is fully infectious and can undergo multiple cycles of replication in cell culture. In addition, the luciferous reporter provides a simple and easy method for quantitating the extent of virus growth and consequently, the antiviral activity of test compounds. The plasmid pNLRLuc contains the proviral NL-Rluc DNA cloned into pUC18 at the PvuII site. The NL-RLuc virus was prepared by transfection of 293T cells with the plasmid pNLRLuc. Transfections were performed using the LipofectAMINE PLUS kit from Invitrogen (Carlsbad, Calif.) according to the manufacturer and the virus generated was titered in MT-2 cells. For susceptibility analyses, the titrated virus was used to infect MT-2 cells in the presence of compound, and after 5 days of incubation, cells were processed and quantitated for virus growth by the amount of expressed luciferase. Assay media was RPMI 1640 supplemented with 10% heat inactivated fetal bovine serum (FBS), 100 units/ml penicillin G/100 units/ml streptomycin, 10 mM HEPES buffer pH 7.55 and 2 mM L-glutamine. The results from at least 2 experiments were used to calculate the EC50 values. Luciferase was quantitated using the Dual Luciferase kit from Promega (Madison, Wis.). Susceptibility of viruses to compounds was determined by incubation in the presence of serial dilutions of the compound. The 50% effective concentration (EC50) was calculated by using the exponential form of the median effect equation where (Fa)=1/[1+(ED50/drug conc.)^m] (Johnson V A, Byington R T. Infectivity Assay. In Techniques in HIV Research. ed. Aldovini A, Walker B D. 71-76. New York: Stockton Press.1990). Activity equal to A refers to a compound having an EC50≤100 nM, while B and C denote compounds having an EC50 between 100 nM and 1 uM (B) or >1 uM (C).
`COc1ccc(-c2ccc(-c3c(C)nc(C)c([C@H](OC(C)(C)C)C(=O)O)c3N3CCC(C)(C)CC3)cc2)cc1` [Example 16, (S)-2-(tert-Butoxy)-2-(4-(4,4-dimethylpiperidin-1-yl)-5-(4′-methoxy-[1,1′-biphenyl]-4-yl)-2,6-dimethylpyridin-3-yl)acetic acid] was tested, and the EC50 was < 0.1 µM.
With `Cc1nc(C)c([C@H](OC(C)(C)C)C(=O)O)c(N2CCC(C)(C)CC2)c1-c1ccc(C(C)(C)O)cc1` [Example 38, (S)-2-(tert-Butoxy)-2-(4-(4,4-dimethylpiperidin-1-yl)-5-(4-(2-hydroxypropan-2-yl)phenyl)-2,6-dimethylpyridin-3-yl)acetic acid] the EC50 was < 0.1 µM.
Molecule `Cc1nc(C)c([C@H](OC(C)(C)C)C(=O)O)c(N2CC(C)CC(C)C2)c1-c1ccc(C(=O)NCc2ccccc2)cc1` (stereo partly shown) [Example 53] has an EC50 of 0.1 to 1 µM.
With `Cc1nc(C)c([C@H](OC(C)(C)C)C(=O)O)c(N2CCC(C)(C)CC2)c1-c1ccc(C(=O)NCc2c(F)cc(F)cc2F)cc1` [Example 69, (S)-2-(tert-Butoxy)-2-(4-(4,4-dimethylpiperidin-1-yl)-2,6-dimethyl-5-(4-((2,4,6-trifluorobenzyl)carbamoyl)phenyl)pyridin-3-yl)acetic acid] the EC50 was < 0.1 µM.
For `Cc1nc(C)c([C@H](OC(C)(C)C)C(=O)O)c(N2CCC(C)(C)CC2)c1-c1ccc(C(=O)O)c(C(=O)NCc2ccccc2)c1` [Example 45, (S)-2-(benzylcarbamoyl)-4-(5-(tert-butoxy(carboxy)methyl)-4-(4,4-dimethylpiperidin-1-yl)-2,6-dimethylpyridin-3-yl)benzoic acid], the EC50 was 0.1 to 1 µM.
`Cc1nc(C)c([C@H](OC(C)(C)C)C(=O)O)c(N2CCC(C)(C)CC2)c1-c1ccc(Cc2ccccc2)cc1` [Example 15, (S)-2-(5-(4-Benzylphenyl)-4-(4,4-dimethylpiperidin-1-yl)-2,6-dimethylpyridin-3-yl)-2-(tert-butoxy)acetic acid] was tested, and the EC50 was < 0.1 µM.
In the case of `Cc1cc(-c2c(C)nc(C)c([C@H](OC(C)(C)C)C(=O)O)c2N2CCC(C)(C)CC2)ccc1F` [Example 39, (S)-2-(tert-Butoxy)-2-(4-(4,4-dimethylpiperidin-1-yl)-5-(4-fluoro-3-methylphenyl)-2,6-dimethylpyridin-3-yl)acetic acid], the EC50 is reported as < 0.1 µM.
For `Cc1nc(C)c([C@H](OC(C)(C)C)C(=O)O)c(N2CCC(C)(C)CC2)c1-c1cc(F)c(CO)c(F)c1` [Example 34, (S)-2-(tert-Butoxy)-2-(5-(3,5-difluoro-4-(hydroxymethyl)phenyl)-4-(4,4-dimethylpiperidin-1-yl)-2,6-dimethylpyridin-3-yl)acetic acid], the EC50 was < 0.1 µM.
`Cc1nc(C)c([C@H](OC(C)(C)C)C(=O)O)c(N2CCC(C)(C)CC2)c1-c1ccc(NCCc2ccc(F)cc2)cc1` [Example 73, (S)-2-(tert-Butoxy)-2-(4-(4,4-dimethylpiperidin-1-yl)-5-(4-((4-fluorophenethyl)amino)phenyl)-2,6-dimethylpyridin-3-yl)acetic acid] was tested, and the EC50 was < 0.1 µM.
In the case of `Cc1nc(C)c([C@H](OC(C)(C)C)C(=O)O)c(N2CCC(C(F)(F)F)CC2)c1-c1ccc(C(=O)NCc2ccccc2)cc1` [Example 54, (S)-2-(5-(4-(Benzylcarbamoyl)phenyl)-2,6-dimethyl-4-(4-(trifluoromethyl)piperidin-1-yl)pyridin-3-yl)-2-(tert-butoxy)acetic acid], the EC50 is reported as < 0.1 µM.
Work on `Cc1nc(C)c([C@H](OC(C)(C)C)C(=O)O)c(N2CCC(C)(C)CC2)c1-c1ccc(C(N)=O)cc1` [Example 25, (S)-2-(tert-Butoxy)-2-(5-(4-carbamoylphenyl)-4-(4,4-dimethylpiperidin-1-yl)-2,6-dimethylpyridin-3-yl)acetic acid] yielded an EC50 of 0.1 to 1 µM.
Work on `Cc1nc(C)c([C@H](OC(C)(C)C)C(=O)O)c(N2CCC(C)(C#N)CC2)c1-c1ccc(C(=O)NCc2ccccc2)cc1` [Example 61, (S)-2-(5-(4-(Benzylcarbamoyl)phenyl)-4-(4-cyano-4-methylpiperidin-1-yl)-2,6-dimethylpyridin-3-yl)-2-(tert-butoxy)acetic acid] yielded an EC50 of 0.1 to 1 µM.
In the case of `COc1cccc(-c2ccc(-c3c(C)nc(C)c([C@H](OC(C)(C)C)C(=O)O)c3N3CCC(C)(C)CC3)cc2)c1` [Example 21, (S)-2-(tert-Butoxy)-2-(4-(4,4-dimethylpiperidin-1-yl)-5-(3′-methoxy-[1,1′-biphenyl]-4-yl)-2,6-dimethylpyridin-3-yl)acetic acid], the EC50 is reported as < 0.1 µM.
With `CNS(=O)(=O)c1ccc(-c2c(C)nc(C)c([C@H](OC(C)(C)C)C(=O)O)c2N2CCC(C)(C)CC2)cc1` [Example 32, (S)-2-(tert-Butoxy)-2-(4-(4,4-dimethylpiperidin-1-yl)-2,6-dimethyl-5-(4-(N-methylsulfamoyl)phenyl)pyridin-3-yl)acetic acid] the EC50 was 0.1 to 1 µM.
For `CSc1ncc(-c2c(C)nc(C)c([C@H](OC(C)(C)C)C(=O)O)c2N2CCC(C)(C)CC2)cn1` [Example 42, (S)-2-(tert-Butoxy)-2-(4-(4,4-dimethylpiperidin-1-yl)-2,6-dimethyl-5-(2-(methylthio)pyrimidin-5-yl)pyridin-3-yl)acetic acid], the EC50 was < 0.1 µM.
In the case of `Cc1nc(C)c([C@H](OC(C)(C)C)C(=O)O)c(N2CCC(C)(C)CC2)c1-c1ccc(-c2ccccc2)cc1` [Example 8, (S)-2-(5-([1,1′-Biphenyl]-4-yl)-4-(4,4-dimethylpiperidin-1-yl)-2,6-dimethylpyridin-3-yl)-2-(tert-butoxy)acetic acid], the EC50 is reported as < 0.1 µM.
In the case of `Cc1nc(C)c([C@H](OC(C)(C)C)C(=O)O)c(N2CCC(C)(C)CC2)c1-c1ccc(C(O)CCc2ccc(F)cc2)cc1` (stereo partly drawn) [Example 51, (2S)-2-(tert-Butoxy)-2-(4-(4,4-dimethylpiperidin-1-yl)-5-(4-(3-(4-fluorophenyl)-1-hydroxypropyl)phenyl)-2,6-dimethylpyridin-3-yl)acetic acid], the EC50 is reported as < 0.1 µM.
`Cc1nc(C)c([C@H](OC(C)(C)C)C(=O)O)c(N2CC(C)(C)C2)c1-c1ccc(C(=O)NCc2ccccc2)cc1` [Example 57, (S)-2-(5-(4-(Benzylcarbamoyl)phenyl)-4-(3,3-dimethylazetidin-1-yl)-2,6-dimethylpyridin-3-yl)-2-(tert-butoxy)acetic acid] was tested, and the EC50 was > 1 µM.
In the case of `Cc1nc(C)c([C@H](OC(C)(C)C)C(=O)O)c(N2CCC(C)(C)CC2)c1-c1ccc(C(=O)CCc2ccc(F)cc2)cc1` [Example 50, (S)-2-(tert-Butoxy)-2-(4-(4,4-dimethylpiperidin-1-yl)-5-(4-(3-(4-fluorophenyl)propanoyl)phenyl)-2,6-dimethylpyridin-3-yl)acetic acid], the EC50 is reported as < 0.1 µM.
`Cc1nc(C)c([C@H](OC(C)(C)C)C(=O)O)c(N2CCC(C)(C)CC2)c1-c1ccc(C(=O)NC(c2ccccc2)C(F)(F)F)cc1` (stereo partly drawn) [Example 88, (2S)-2-(tert-Butoxy)-2-(4-(4,4-dimethylpiperidin-1-yl)-2,6-dimethyl-5-(4-((2,2,2-trifluoro-1-phenylethyl)carbamoyl)phenyl)pyridin-3-yl)acetic acid] was tested, and the EC50 was < 0.1 µM.
For `Cc1nc(C)c([C@H](OC(C)(C)C)C(=O)O)c(N2CCC(C)(C)CC2)c1-c1ccc(-c2ncc(-c3ccc(F)cc3)o2)cc1` [Example 5, (S)-2-(tert-Butoxy)-2-(4-(4,4-dimethylpiperidin-1-yl)-5-(4-(5-(4-fluorophenyl)oxazol-2-yl)phenyl)-2,6-dimethylpyridin-3-yl)acetic acid], the EC50 was < 0.1 µM.
With `Cc1nc(C)c([C@H](OC(C)(C)C)C(=O)O)c(N2CCC(C)(C)CC2)c1-c1ccc(C(=O)NCc2ccccc2)cc1` [Example 24, (S)-2-(5-(4-(Benzylcarbamoyl)phenyl)-4-(4,4-dimethylpiperidin-1-yl)-2,6-dimethylpyridin-3-yl)-2-(tert-butoxy)acetic acid] the EC50 was < 0.1 µM.
For `Cc1ccc(-c2c(C)nc(C)c([C@H](OC(C)(C)C)C(=O)O)c2N2CCC(C)(C)CC2)cc1F` [Example 19, (S)-2-(tert-Butoxy)-2-(4-(4,4-dimethylpiperidin-1-yl)-5-(3-fluoro-4-methylphenyl)-2,6-dimethylpyridin-3-yl)acetic acid], the EC50 was < 0.1 µM.
In the case of `Cc1nc(C)c([C@H](OC(C)(C)C)C(=O)O)c(N2CCC(C)(C)CC2)c1-c1ccc(-c2ncc(Cc3ccc(F)cc3)o2)cc1` [Example 4, (S)-2-(tert-Butoxy)-2-(4-(4,4-dimethylpiperidin-1-yl)-5-(4-(5-(4-fluorobenzyl)oxazol-2-yl)phenyl)-2,6-dimethylpyridin-3-yl)acetic acid], the EC50 is reported as < 0.1 µM.
Work on `CCc1ccc(-c2ccc(-c3c(C)nc(C)c([C@H](OC(C)(C)C)C(=O)O)c3N3CCC(C)(C)CC3)cc2)cc1` [Example 12, (S)-2-(tert-Butoxy)-2-(4-(4,4-dimethylpiperidin-1-yl)-5-(4′-ethyl-[1,1′-biphenyl]-4-yl)-2,6-dimethylpyridin-3-yl)acetic acid] yielded an EC50 of 0.1 to 1 µM.

Same assay, conditions: Renilla, NL43, 120 h, read-out: EC50 μM
`Cc1nc(C)c([C@H](OC(C)(C)C)C(=O)O)c(N2CCC(C)(C)CC2)c1-c1ccc(C(=O)NCc2c(F)cc(F)cc2F)cc1` [Example 69, (S)-2-(tert-Butoxy)-2-(4-(4,4-dimethylpiperidin-1-yl)-2,6-dimethyl-5-(4-((2,4,6-trifluorobenzyl)carbamoyl)phenyl)pyridin-3-yl)acetic acid] gave an EC50 of 0.004 µM.
`Cc1nc(C)c([C@H](OC(C)(C)C)C(=O)O)c(N2CCC(C)(C)CC2)c1-c1ccc(-c2ccccc2)cc1` [Example 8, (S)-2-(5-([1,1′-Biphenyl]-4-yl)-4-(4,4-dimethylpiperidin-1-yl)-2,6-dimethylpyridin-3-yl)-2-(tert-butoxy)acetic acid] was tested, and the EC50 was 0.031 µM.
Work on `Cc1nc(C)c([C@H](OC(C)(C)C)C(=O)O)c(N2CC(C)(C)C2)c1-c1ccc(C(=O)NCc2ccccc2)cc1` [Example 57, (S)-2-(5-(4-(Benzylcarbamoyl)phenyl)-4-(3,3-dimethylazetidin-1-yl)-2,6-dimethylpyridin-3-yl)-2-(tert-butoxy)acetic acid] yielded an EC50 of 2.54 µM.
